Target: Ec-F1F0 (E. coli ATP synthase) (Escherichia coli, UniProt P0ABB0+P0ABB4)
Experiment: NADH-driven ATP synthesis in proteoliposomes, luciferase luminescence
Type: biochemical
Conditions: turnover only; 50 μM ADP, 20 mM Tris-PO4 pH 7.4, 5 mM MgCl2, 200 μM NADH, 20 °C

Chain of Ec-F1F0 (E. coli ATP synthase) (P0ABB0 whole entry, looked up): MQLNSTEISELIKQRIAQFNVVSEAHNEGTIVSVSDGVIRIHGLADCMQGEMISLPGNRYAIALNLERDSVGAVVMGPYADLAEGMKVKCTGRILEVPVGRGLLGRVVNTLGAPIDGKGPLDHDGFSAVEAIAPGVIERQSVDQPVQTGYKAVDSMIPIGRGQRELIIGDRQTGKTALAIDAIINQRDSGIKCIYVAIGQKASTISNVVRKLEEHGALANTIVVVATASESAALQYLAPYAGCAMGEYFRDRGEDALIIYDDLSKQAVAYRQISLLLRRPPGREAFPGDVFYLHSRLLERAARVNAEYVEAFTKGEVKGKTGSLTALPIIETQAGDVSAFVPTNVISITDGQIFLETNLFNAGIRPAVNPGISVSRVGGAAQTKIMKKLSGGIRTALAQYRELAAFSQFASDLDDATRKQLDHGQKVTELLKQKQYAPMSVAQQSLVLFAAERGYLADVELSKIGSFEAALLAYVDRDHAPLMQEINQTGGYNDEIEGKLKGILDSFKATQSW
Chain of Ec-F1F0 (E. coli ATP synthase) (P0ABB4 whole entry, looked up): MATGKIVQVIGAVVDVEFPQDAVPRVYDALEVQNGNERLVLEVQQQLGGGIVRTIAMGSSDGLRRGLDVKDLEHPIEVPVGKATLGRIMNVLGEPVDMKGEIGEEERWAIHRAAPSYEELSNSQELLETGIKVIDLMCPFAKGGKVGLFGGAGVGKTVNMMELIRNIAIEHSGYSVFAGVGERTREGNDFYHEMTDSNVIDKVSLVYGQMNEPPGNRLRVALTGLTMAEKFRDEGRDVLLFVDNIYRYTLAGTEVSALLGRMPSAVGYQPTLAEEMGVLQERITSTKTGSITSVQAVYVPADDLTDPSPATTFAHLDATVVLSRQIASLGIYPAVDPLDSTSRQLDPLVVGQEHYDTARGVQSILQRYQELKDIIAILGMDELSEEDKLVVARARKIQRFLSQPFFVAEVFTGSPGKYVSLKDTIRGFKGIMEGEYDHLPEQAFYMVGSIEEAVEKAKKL

**Q.** With Nc1ncnc2c1ncn2[C@@H]1O[C@H](COP(=O)(O)OP(=O)(O)O)[C@@H](O)[C@H]1O [ADP] as the molecule, how does the “NADH-driven ATP synthesis in proteoliposomes, luciferase luminescence” value read?
**A.** Its value is “the Δp is used by Ec-F1F0 to generate ATP”.

From PMC7611821 (ACS synthetic biology, 2020)
